SMILES strings stand for the structures. pEC50: −log10 of the molar value. Calls of active or inactive are those of the source.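 Rule for the calls: active = half-maximal concentration for the rise in caspase light signal at or below ten times the top tested dose; inconclusive = flat fit between 30% and 70% activity, or unreliable curve fit; inactive = the rest.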

Here are results for 62 molecules from PubChem BioAssay AID2765 (Broad Institute, 2010).

For this assay, the system named is MEF A1-2A-BIM cells, caspase 3/7 luminescence, 3 h. Put plainly: caspase activation in A1-2A-BIM MEF cells, dose response, A1 inhibitor project, cell-based, luminescence, retest (AID 2765).
For `CCOCCCNC(=O)c1ccc2c(c1)N=C(CC)c1cc(Br)ccc1S2`, the EC50 is > 35 µM (inactive).
Same read-out and setting: the result for `CN(C)C/C=C(\c1ccc(Br)cc1)c1cccnc1` reads > 35 µM (inactive).
Take `COc1ccc(C2C(C(=O)c3ccc(C)o3)=C(O)C(=O)N2Cc2cccnc2)cc1OC` (configuration not stated): the EC50 was > 35 µM (inactive).
Take `Cc1ccc(NC(=O)c2ccc(Cl)c(N3C(=O)C=CC3=O)c2)cc1`: the EC50 was > 35 µM (inactive).
On the same count and under the same terms, the result for `Cc1cc(=O)oc2c3c(cc(OCC(=O)N[C@@H](CC(C)C)C(=O)O)c12)OC(C)(C)CC3` reads > 35 µM (inactive); that for `O=C(NCc1cccs1)C(=O)NCC1OCCCN1S(=O)(=O)c1ccccc1` (configuration not stated), > 35 µM (inactive).
Turning to `O=C(Nc1nnc(C2CCCCC2)s1)C1CC(=O)N(c2ccc(F)cc2)C1` (configuration not stated), the EC50 was > 35 µM (inactive).
Turning to `COc1ccc(CNCc2ccc([N+](=O)[O-])cc2)cc1OC`, the EC50 is > 35 µM (inactive).
Turning to `O=C(Nc1ccccc1N1CCCC1)C1CCN(S(=O)(=O)c2ccc(F)cc2)CC1`, the EC50 was > 35 µM (inactive).
The same measure, in the same setting: the result for `CCc1ccc(CN/C=C/C(=O)c2ccc(Br)cc2)cc1` reads > 35 µM (inactive); that for `CC1=C/C(=N\OS(=O)(=O)c2ccccc2)C(C)=CC1=O`, > 35 µM (inactive); that for `Cc1ccc(N(Cc2cc(=O)[nH]c3ccccc23)C(=O)CCl)cc1`, > 35 µM (inactive).
Still for that read-out and setting: for `CCN(CC)CCSc1nnc2c3ccccc3n(Cc3ccccc3)c2n1` the value was > 35 µM (inactive).
On the same count and under the same terms, for `COc1oc(-c2ccccc2)nc1C(F)(F)F` the value was > 35 µM (inactive).
For the molecule `Cc1cccc(NC(=O)/C(C#N)=C/c2cn(CC(=O)NCc3ccco3)c3ccccc23)c1`, the pEC50 is 4.66.
Take `CCn1c(SCC(=O)c2ccccc2)nnc1-c1cc2cc(Br)ccc2o1`: the EC50 was > 35 µM (inactive).
In the case of `Cc1onc(-c2c(Cl)cccc2Cl)c1C(=O)N=S(C)(=O)c1ccccc1` (configuration not stated), the EC50 is > 35 µM (inactive).
In the case of `COc1ccc2c(c1)[nH]c1c(=O)n(/N=C/C3C(C)C=C(C)CC3C)c(=O)[nH]c12` (configuration not stated), the EC50 is > 35 µM (inactive).
The same measure, in the same setting: for `Nc1cn(C2OC(CO)C(O)C2O)c(=O)[nH]c1=O` (configuration not stated) the value was > 35 µM (inactive).
Still for that read-out and setting: the result for `COc1cc(CN2CCNC(=O)C2CC(=O)N(C)CCCN2CCOCC2)cc(OC)c1` (configuration not stated) reads > 35 µM (inactive); that for `Cc1cc(NC(=O)CN(C)C)c([N+](=O)[O-])cc1C`, > 35 µM (inactive); that for `CCOC(=O)CSc1nnc(Cc2ccc(OC)cc2)n1-c1ccccc1`, > 35 µM (inactive).
Still for that read-out and setting: for `Cc1cc(C(C#N)c2ccc(Cl)cc2)c(Cl)cc1NC(=O)c1cc(I)cc(I)c1O` (configuration not stated) the value was > 35 µM (inactive); for `Cc1ccc(S(=O)(=O)n2cc(-c3ccccc3)c3ccccc32)cc1`, > 35 µM (inactive).
`Cc1ccc(NC(=O)CSc2nnc(C)n2-c2ccccc2)cc1`: the EC50 was > 35 µM (inactive).
Still for that read-out and setting: the result for `CC(=O)c1ccc(S(=O)(=O)N2CCCCC2C(=O)O)cc1` (configuration not stated) reads > 35 µM (inactive).
For the molecule `O=[N+]([O-])/C=C/c1ccc2c(ccn2Cc2ccccc2)c1`, the pEC50 was 4.91.
`O=C(CNc1cccc(S(=O)(=O)N2CCCC2)c1)Nc1cccc(C(F)(F)F)c1`: the EC50 was > 35 µM (inactive).
As for `COc1cccc(-n2nnnc2S(C)(=O)=O)c1`, the EC50 is > 35 µM (inactive).
On the same count and under the same terms, the result for `CC(=O)c1ccc(NC(=O)CO/N=C(\C)c2cccs2)cc1` reads > 35 µM (inactive); that for `CC(=O)n1nc2nc(C)cc(C)c2c1N`, > 35 µM (inactive).
As for `CCCOc1ccc(N2C(=O)C3ON(c4ccccc4)C(CCC)C3C2=O)cc1` (configuration not stated), the EC50 was > 35 µM (inactive).
Same read-out and setting: for `CS(=O)(=O)Nc1ccc(C2=NN(C(=O)c3cccc(F)c3)C(c3cccs3)C2)cc1` (configuration not stated) the value was > 35 µM (inactive); for `C[C@H](CO)N1C[C@H](C)[C@@H](CN(C)CC2CCCCC2)Oc2c(NS(=O)(=O)c3cccs3)cccc2C1=O`, > 35 µM (inactive); for `COc1ccc2c(c1)c(=O)c(C(=O)c1ccc(F)cc1)cn2CC(=O)Nc1ccc(F)cc1`, > 35 µM (inactive).
Take `COc1ccc(C(=O)COC(=O)Cn2[nH]c(=O)c3ccccc3c2=O)c(OC)c1`: the EC50 is > 35 µM (inactive).
Take `Cc1ccc(N=C2C(=O)Nc3ccccc32)cc1`: the EC50 is > 35 µM (inactive).
For `O=C(CN1C(=O)c2ccccc2S1(=O)=O)NCCc1ccccc1`, the EC50 was > 35 µM (inactive).
As for `O=C(/C=C/c1ccc(Cl)cc1)c1ccc([N+](=O)[O-])o1`, the EC50 was > 35 µM (inactive).
`CCCn1c(SCC(=O)NC)nc2sc3c(c2c1=O)CCC3`: the EC50 is > 35 µM (inactive).
On to `CSc1ccc(CCNC(=O)CCc2nnc3ccc(NCCCN4CCCC4=O)nn23)cc1`, for which the EC50 is > 35 µM (inactive).
With `CC(C)NCC(O)c1ccc(NS(C)(=O)=O)cc1` (configuration not stated), the EC50 was > 35 µM (inactive).
Still for that read-out and setting: for `N#Cc1cccnc1N1CCN(C(=O)c2cccc3c2C(=O)c2ccc(-c4ccc(Cl)c(C(F)(F)F)c4)cc2S3(=O)=O)CC1` the value was > 35 µM (inactive).
Regarding `C=C(C(=O)Oc1ccccc1C(C)(C)C)c1ccccc1`, the pEC50 was 4.80.
On to `CCOC(=O)c1c(C)oc2c1c(CN1CCN(C(=O)OCC)CC1)c(O)c1ccccc12`, for which the pEC50 was 5.09.
On to `COc1ccc(C(=O)/C=C/C(=O)N(CC(=O)NC2CCCCC2)Cc2cccs2)c(O)c1`, for which the EC50 is > 35 µM (inactive).
`CCOC(=O)c1ccc(NS(=O)(=O)c2ccc3c(c2)CCCN3C(C)=O)cc1`: the EC50 was > 35 µM (inactive).
Take `CCn1c(Cl)c(C=O)s/c1=N\S(=O)(=O)c1ccccc1`: the EC50 is > 35 µM (inactive).
Still for that read-out and setting: for `CCOC(=O)COc1ccc(S(=O)(=O)N2CCN(c3ccc(OC)cc3)CC2)cc1` the value was > 35 µM (inactive).
Turning to `CCn1c(CNc2ccc(F)cc2)nnc1SCC(=O)Nc1ccccc1OC`, the EC50 was > 35 µM (inactive).
Still for that read-out and setting: for `CN1CCN(c2nccc3c2ncn3C)CC1` the value was > 35 µM (inactive); for `CCCCc1ccc(-c2csc(/C(C#N)=C\c3ccc(C)o3)n2)cc1`, > 35 µM (inactive).
For `Nc1nonc1-c1nc2ccccc2n1CC(=O)NC1CCCC1`, the EC50 is > 35 µM (inactive).
The same measure, in the same setting: for `CC(C)C(OC(=O)c1cc2c(s1)CCCCC2)C(=O)NC(N)=O` (configuration not stated) the value was > 35 µM (inactive); for `Cc1cc(C)n2nc(SCC(=O)NC(=O)c3ccccc3)nc2n1`, > 35 µM (inactive).
Consider `CN(C(=O)c1ccc(NC(=O)C2CCCN(C(=O)OC(C)(C)C)C2)cc1)C1CC1` (configuration not stated), for which the EC50 was > 35 µM (inactive).
Still for that read-out and setting: for `CCOc1nc2c(c(-c3cccs3)c1C#N)Cc1ccccc1-2` the value was > 35 µM (inactive).
For `O=C(Nc1ccc2oc(-c3cccc(F)c3)nc2c1)c1ccccc1F`, the EC50 is > 35 µM (inactive).
As for `Cc1ccc(/C=C/C(=O)c2ccc([N+](=O)[O-])o2)cc1`, the EC50 is > 35 µM (inactive).
`Cc1cc(-c2onc(C)c2C(=O)Nc2ccc(C(F)(F)F)cc2)no1`: the EC50 is > 35 µM (inactive).
Still for that read-out and setting: the result for `O=C(/C=C/c1ccc(Br)cc1)c1ccc(NC2=NCCCS2)cc1` reads > 35 µM (inactive).
For `CNC(=S)NC1(C)CCS(=O)(=O)C1` (configuration not stated), the EC50 is > 35 µM (inactive).
